According to US10149809B2, “Skin aging inhibitor and concentrate of resveratrol 3-O-α-glucoside” (priority 2014, dated 2018):

Legend:
Solubility in water = assay type: physicochemical
Description: (§1) Approximately 5 mg each of resveratrol 3-O-α-glucoside, resveratrol (Tokyo Chemical Industry Co., Ltd.), and resveratrol 3-O-β-glucoside (Tokyo Chemical Industry Co., Ltd.) was weighed, approximately 1 mL of water was added thereto, and the mixture was soaked in a water bath at 25° C. under light-tight conditions, and incubated for 20 hours with occasional stirring. After 20 hours, each of the samples was filtered through a 0.45 μm centrifugal filter, and then the concentration of each of the components in the filtrate was analyzed using HPLC under the same conditions as those described in Production Example 1 above. The dissolved concentration (w/v %) in water at 25° C. was thus determined.

[1] = Solubility in solvent containing 1,2-pentanediol; assay type: physicochemical
Description: as §1, with “Approximately 40” for “Approximately 5”, “approximately 70 mg” for “approximately 1 mL”, “of a solvent (whose composition is shown in Table 18) containing ethanol (Wako Pure Chemical Industries, Ltd.)” for “of water”, “for 15” for “for 20”, “After 15” for “After 20”, “%)” for “%) in water”
The solubility of resveratrol 3-O-α-glucoside was evaluated under the same conditions as those described in Example 18 above, except that a solvent (whose composition is shown in Table 23) containing 1,2-pentanediol (Kankosha Co., Ltd.) was used.

[2] = test system: skin model (MEL-312B; MatTek); experiment: Melanogenesis suppressing effect in skin model (amount of melanin, visual observation); assay type: cell-based; details: 16 days; for Relative Amount of Melanin: PBS control group = 100%; for Visual Observation: compared with PBS control group
Description: Resveratrol 3-O-α-glucoside, resveratrol (Tokyo Chemical Industry Co., Ltd.), or resveratrol 3-O-β-glucoside (Tokyo Chemical Industry Co., Ltd.) was prepared into a 0.2 wt % solution or suspension with the addition of PBS, and the resulting solution or suspension was used as a test substance. A skin model (MEL-312B; MatTek) was used, and 50 μL of the test substance was added to the horny layer side of the skin model and cultured in a special medium (EPI-100NMM-113; MatTek) at 37° C. for 16 days. On days 2, 4, 7, 9, 11, and 14, the medium and the test substance were replaced with fresh ones. As a control group, the same operation was performed using PBS instead of the test substance.
After 16 days of culture, the skin model was visually observed, and the amount of melanin in the skin model was evaluated. The amount of melanin was measured using the following method. Initially, the collected skin model was subjected to enzymatic degradation by proteinase-K, and was subsequently homogenated in PBS containing 1% triton X-100. Melanin was then extracted by washing with 10% TCA and ethanol. Next, the extracted melanin was dissolved in 0.5 mL of 1N-NaOH containing 10% DMSO at 80° C. for 2 hours, and the amount of melanin was quantified by measuring absorbance at 470 nm.
Resveratrol 3-O-α-glucoside was prepared into a 0.2 wt % solution, a 0.1 wt % solution, or a 0.01 wt % solution with the addition of PBS. The resulting solution was used as a test substance, and the melanogenesis suppressing effect was evaluated using the same method as that of Example 1 above. […]

[3] = test system: human skin model (EpiDerm EPI-200; MatTek); experiment: Skin cell activation effect, MTT survival rate in three-dimensional human skin model; assay type: cell-based; details: 100 μL, 72 hours, water control = 100%
Description: Using a three-dimensional human skin model, the skin cell activation effect of resveratrol 3-O-α-glucoside was investigated.
Resveratrol 3-O-α-glucoside was prepared into an aqueous solution having a concentration of 0.02, 0.05, 0.07, or 0.1 wt %, and the resulting solution was used as a sample solution. One-hundred microliters of the sample solution were administered to the horny layer side of the human skin model (EpiDerm EPI-200; MatTek), and cultured in 5 mL of a special medium (EPI-100-ASY) at 37° C. for 72 hours. After the culture, the survival rate of cells in the skin model was measured using the MTT (Thiazolyl Blue Tetrazolium Bromide) method based on the manual, and a relative ratio of the survival rate (cell growth improvement rate; %) after the administration of each of the sample solutions was calculated, taking as 100% the survival rate of a control group to which water not containing resveratrol 3-O-α-glucoside was administered.

[4] = Absorption when orally ingested: converted resveratrol concentration in plasma; assay type: in vivo, human
Description: Blood concentrations of resveratrol metabolites when resveratrol 3-O-α-glucoside and resveratrol 3-O-β-glucoside were orally ingested were examined, and the absorption properties of resveratrol 3-O-α-glucoside and resveratrol 3-O-β-glucoside were compared.
To 100 mL of water, 86 mg of resveratrol 3-O-α-glucoside or resveratrol 3-O-β-glucoside (Tokyo Chemical Industry Co., Ltd.) was added, and the mixture was stirred for 1 minute. The resulting solution was orally ingested by a subject at a time. Blood was collected prior to, 30 minutes after, and 1, 2, 3, and 4 hours after the ingestion, and the plasma was separated by centrifugation. The test was performed three times for each of the samples. In order to quantify the amount of resveratrol derivatives in the collected plasma samples, 10 μL of β-glucronidase Type H-2 from Sigma-Aldrich Co. LLC. (glucuronidase activity: 115003 units/mL, sulfatase activity: 556 units/mL; a 5-fold diluted solution in a 100 mM acetate buffer solution (pH 5.5)) was added to 10 μL of the collected plasma, and enzyme treatment was performed at 37° C. for about 18 hours. After the reaction, 80 μL of 60% acetonitrile was added, and subsequently 100 μL of water was further added thereto, and the mixture was stirred. The filtrate obtained by filtering through a membrane (0.45 μm) was subjected to HPLC analysis. A converted resveratrol concentration was determined by converting the concentration of resveratrol derivatives in each of the plasma samples into the concentration of resveratrol, and maximum blood concentrations and areas under the curve (AUCs) 0 to 4 hours after the ingestion were determined.

[5] = Solubility in solvent containing 1,2-hexanediol; assay type: physicochemical
Description: as §1, with “Approximately 40” for “Approximately 5”, “approximately 70 mg” for “approximately 1 mL”, “of a solvent (whose composition is shown in Table 18) containing ethanol (Wako Pure Chemical Industries, Ltd.)” for “of water”, “for 15” for “for 20”, “After 15” for “After 20”, “%)” for “%) in water”
The solubility of resveratrol 3-O-α-glucoside was evaluated under the same conditions as those described in Example 18 above, except that a solvent (whose composition is shown in Table 24) containing 1,2-hexanediol (Kankosha Co., Ltd.) was used.

Which “Dissolved Concentration (μg/mL) in Water” value (Solubility in water; 20 h) does the source give for `OC[C@H]1O[C@H](Oc2cc(O)cc(C=Cc3ccc(O)cc3)c2)[C@H](O)[C@@H](O)[C@@H]1O` [Resveratrol 3-O-α-Glucoside, resveratrol 3-O-α-glucoside] here?
Its value is 2900 µg/mL.

And the dissolved concentration [1]?
The dissolved concentration was “exceeded 20 w/v %”.

And the “Relative Amount of Melanin” value ([2]; 0.01 wt % in PBS)?
Its value is 88%.

What about the “Visual Observation” value ([2]; 0.01 wt % in PBS) of the same molecule?
The value was “slightly whiter than the”.

And the “Relative Amount of Melanin” value ([2]; 0.1 wt % in PBS)?
The value was 67%.

What about the “Relative Amount of Melanin” value ([2]; 0.2 wt % in PBS, 50 μL) of the same molecule?
The value was 46%.

What about the “Cell Growth Improvement Rate (%)” value ([3]; 0.02 wt % aqueous solution) of the same molecule?
Its value is 106%.

What about the “Cell Growth Improvement Rate (%)” value ([3]; 0.05 wt % aqueous solution) of the same molecule?
The value was 115%.

And the “Cell Growth Improvement Rate (%)” value ([3]; 0.07 wt % aqueous solution)?
Its value is 116%.

And the “Cell Growth Improvement Rate (%)” value ([3]; 0.1 wt % aqueous solution)?
Its value is 117%.

What about the “AUC relative to resveratrol 3-O-β-glucoside” value ([4]; human, in vivo, po, 86 mg) of the same molecule?
Its value is 2.8 times.

What about the dissolved concentration [5] of the same molecule?
The dissolved concentration was “exceeded 25 w/v %”.

With `OC[C@H]1O[C@@H](Oc2cc(O)cc(/C=C/c3ccc(O)cc3)c2)[C@H](O)[C@@H](O)[C@@H]1O` [Resveratrol 3-O-β-Glucoside, resveratrol 3-O-β-glucoside] as the molecule, how does the “Dissolved Concentration (μg/mL) in Water” value (Solubility in water; water, 25° C., 20 hours) read?
Its value is 370 µg/mL.

And the “Dissolved Concentration (w/v %) at 25° C.” value ([1]; 1,2-Pentanediol:Water 0:100 (weight ratio))?
Its value is 0.04 w/v %.

What about the “Dissolved Concentration (w/v %) at 25° C.” value ([1]; 1,2-Pentanediol:Water 10:90 (weight ratio)) of the same molecule?
Its value is 0.2 w/v %.

What about the “Dissolved Concentration (w/v %) at 25° C.” value ([1]; 1,2-Pentanediol:Water 25:75 (weight ratio)) of the same molecule?
The value was 2.3 w/v %.

What about the “Dissolved Concentration (w/v %) at 25° C.” value ([1]; 1,2-Pentanediol:Water 50:50 (weight ratio)) of the same molecule?
The value was 7.5 w/v %.

What about the “Dissolved Concentration (w/v %) at 25° C.” value ([1]; 1,2-Pentanediol:Water 75:25 (weight ratio)) of the same molecule?
The value was 11.3 w/v %.

And the “Dissolved Concentration (w/v %) at 25° C.” value ([1]; 1,2-Pentanediol:Water 90:10 (weight ratio))?
Its value is 9.4 w/v %.

What about the “Dissolved Concentration (w/v %) at 25° C.” value ([1]; 1,2-Pentanediol:Water 100:0 (weight ratio)) of the same molecule?
Its value is 4.6 w/v %.

What about the “Visual Observation” value ([2]; 0.2 wt % in PBS, 50 μL to horny layer side) of the same molecule?
The value was “the same as the control”.

And the “Relative Amount of Melanin” value ([2]; 0.2 wt % in PBS, 50 μL)?
The value was 79%.

What about the “Maximum Plasma Concentration” value ([4]; 86 mg in 100 mL water orally, one subject, three tests, converted resveratrol concentration after glucuronidase/sulfatase treatment) of the same molecule?
The value was 282 ng/mL.

What about the “Area under the Curve ((mg/L) · Hr)” value ([4]; 86 mg orally, 0 to 4 hours after ingestion, converted resveratrol concentration) of the same molecule?
Its value is 0.9 (mg/L) · Hr.

And the “Dissolved Concentration (w/v %) at 25° C.” value ([5]; 1,2-Hexanediol:Water 0:100 (weight ratio))?
The value was 0.04 w/v %.

What about the “Dissolved Concentration (w/v %) at 25° C.” value ([5]; 1,2-Hexanediol:Water 5:95 (weight ratio)) of the same molecule?
The value was 0.1 w/v %.

And the “Dissolved Concentration (w/v %) at 25° C.” value ([5]; 1,2-Hexanediol:Water 10:90 (weight ratio))?
The value was 0.5 w/v %.

What about the “Dissolved Concentration (w/v %) at 25° C.” value ([5]; 1,2-Hexanediol:Water 25:75 (weight ratio)) of the same molecule?
The value was 2.6 w/v %.

What about the “Dissolved Concentration (w/v %) at 25° C.” value ([5]; 1,2-Hexanediol:Water 50:50 (weight ratio)) of the same molecule?
The value was 6.5 w/v %.

What about the “Dissolved Concentration (w/v %) at 25° C.” value ([5]; 1,2-Hexanediol:Water 75:25 (weight ratio)) of the same molecule?
The value was 7.9 w/v %.

And the “Dissolved Concentration (w/v %) at 25° C.” value ([5]; 1,2-Hexanediol:Water 90:10 (weight ratio))?
Its value is 10.7 w/v %.

And the “Dissolved Concentration (w/v %) at 25° C.” value ([5]; 1,2-Hexanediol:Water 100:0 (weight ratio))?
The value was 3.2 w/v %.
